Results from ChEMBL document CHEMBL5150009, “Specific Inhibitor of Placental Alkaline Phosphatase Isolated from a DNA-Encoded Chemical Library Targets Tumor of the Female Reproductive Tract” (J Med Chem, 2021).
Active and inactive are the calls of the source. No cut-off for these calls is given here.

Legend:
[1] = Inhibition of human recombinant PLAP using biotinylated CDP as substrate incubated for 30 mins by chemiluminescent assay
[2] = molecular target: T1, Alkaline phosphatase, placental type (Homo sapiens, UniProt P05187); experiment: Binding affinity to human PLAP incubated for 15 mins by Fluorescence polarization assay
T1 sequence (P05187 whole entry): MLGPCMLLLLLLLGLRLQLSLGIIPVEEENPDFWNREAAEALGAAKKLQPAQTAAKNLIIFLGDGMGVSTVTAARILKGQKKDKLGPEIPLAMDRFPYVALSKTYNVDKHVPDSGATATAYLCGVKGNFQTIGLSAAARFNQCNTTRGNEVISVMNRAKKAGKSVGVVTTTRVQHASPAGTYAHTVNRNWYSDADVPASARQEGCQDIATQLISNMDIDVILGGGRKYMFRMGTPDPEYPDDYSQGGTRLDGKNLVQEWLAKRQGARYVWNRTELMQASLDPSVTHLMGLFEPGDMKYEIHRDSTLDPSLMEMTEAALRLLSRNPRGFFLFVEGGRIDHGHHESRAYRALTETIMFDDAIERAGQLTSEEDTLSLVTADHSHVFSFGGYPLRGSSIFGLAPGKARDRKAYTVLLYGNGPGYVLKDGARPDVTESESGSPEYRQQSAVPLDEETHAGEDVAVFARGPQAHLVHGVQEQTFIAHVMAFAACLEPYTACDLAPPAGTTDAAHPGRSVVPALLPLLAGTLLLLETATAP

SK-OV-3 [3] = experiment: Inhibition of human recombinant PLAP expressed in human SK-OV-3 cells assessed as fluorescence intensity at 100 nM incubated for 1 hr by FACS based flow cytometry analysis; assay type: cell-based
HeLa [4] = experiment: Antitumor activity against human HeLa cells xenografted in […] nu/nu mouse assessed as cell accumulation in intestine at 2.5 micromol/kg, iv incubated for 1 hr by microscopic analysis; assay type: functional, organism-based; settings: dose 2.5 µmol/kg
HeLa [5] = experiment: Antitumor activity against human HeLa cells xenografted in […] nu/nu mouse assessed as cell accumulation in lung at 2.5 micromol/kg, iv incubated for 1 hr by microscopic analysis; assay type: functional, organism-based; settings: dose 2.5 µmol/kg
HeLa [6] = experiment: Inhibition of human recombinant PLAP expressed in human HeLa cells assessed as localization of cell on membrane at 120 nM incubated for 15 mins by Hoechst 33342 staining based laser microscopic analysis
HeLa [7] = experiment: Antitumor activity against human HeLa cells xenografted in […] nu/nu mouse assessed as cell accumulation in heart at 2.5 micromol/kg, iv incubated for 1 hr by microscopic analysis; assay type: functional, organism-based; settings: dose 2.5 µmol/kg
HeLa [8] = experiment: Antitumor activity against human HeLa cells xenografted in […] nu/nu mouse assessed as cell accumulation in spleen at 2.5 micromol/kg, iv incubated for 1 hr by microscopic analysis; assay type: functional, organism-based; settings: dose 2.5 µmol/kg
OVCAR-3 = experiment: Inhibition of human recombinant PLAP expressed in human OVCAR-3 cells assessed as fluorescence intensity at 100 nM incubated for 1 hr by FACS based flow cytometry analysis; assay type: cell-based
HeLa [9] = experiment: Inhibition of human recombinant PLAP expressed in human HeLa cells assessed as fluorescence intensity at 100 nM incubated for 1 hr by FACS analysis; assay type: cell-based
HeLa [10] = experiment: Antitumor activity against human HeLa cells xenografted in […] nu/nu mouse assessed as cell accumulation in liver at 2.5 micromol/kg, iv incubated for 1 hr by microscopic analysis; assay type: functional, organism-based; settings: dose 2.5 µmol/kg
HeLa [11] = experiment: Induction of cell death in human HeLa cells incubated for 72 hrs in presence of uniCAR T cells by microscopic analysis; assay type: functional, cell-based
SK-OV-3 [12] = experiment: Inhibition of human recombinant PLAP expressed in human SK-OV-3 cells assessed as localization of cell on membrane at 120 nM incubated for 15 mins by Hoechst 33342 staining based laser microscopic analysis
[13] = molecular target: T2, Alkaline phosphatase, tissue-nonspecific isozyme (Homo sapiens) (UniProt P05186); experiment: Binding affinity to TNAP (unknown origin) incubated for 15 mins by Fluorescence polarization assay
T2 sequence (whole entry): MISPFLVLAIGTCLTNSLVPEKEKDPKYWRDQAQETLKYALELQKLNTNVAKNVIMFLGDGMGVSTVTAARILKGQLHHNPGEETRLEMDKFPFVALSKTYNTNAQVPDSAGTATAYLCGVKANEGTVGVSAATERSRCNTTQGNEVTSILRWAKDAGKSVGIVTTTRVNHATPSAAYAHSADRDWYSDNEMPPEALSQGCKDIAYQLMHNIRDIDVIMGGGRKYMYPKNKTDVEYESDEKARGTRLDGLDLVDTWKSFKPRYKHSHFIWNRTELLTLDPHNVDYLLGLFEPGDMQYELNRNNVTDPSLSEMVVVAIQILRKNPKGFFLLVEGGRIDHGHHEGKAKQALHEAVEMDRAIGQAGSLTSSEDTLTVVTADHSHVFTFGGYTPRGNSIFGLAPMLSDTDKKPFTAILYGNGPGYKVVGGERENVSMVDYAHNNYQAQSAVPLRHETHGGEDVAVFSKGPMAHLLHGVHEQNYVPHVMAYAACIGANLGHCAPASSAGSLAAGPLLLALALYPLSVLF

[14] = molecular target: T2, Alkaline phosphatase, tissue-nonspecific isozyme (Homo sapiens); experiment: Inhibition of TNAP (unknown origin) at 20 uM using biotinylated CDP as substrate incubated for 30 mins by chemiluminescent assay
[15] = molecular target: T1, Alkaline phosphatase, placental type; experiment: Inhibition of human PLAP using biotinylated CDP as substrate incubated for 30 mins by chemiluminescent assay

SMILES	IC50 [1] [µM]	Activity [2]	other results
Cc1cc(NC(=O)[C@H](CCC(=O)NCC(=O)N[C@@H](CCCCN)C(N)=O)NC(=O)CC(C)(C)CC(N)=O)ccc1Br	> 20		
Cc1cc(NC(=O)[C@@H](CCC(=O)N[C@@H](CCC(=O)O)C(=O)N[C@@H](CCCCN)C(N)=O)NC(=O)CC(C)(C)CC(N)=O)ccc1Br	> 20		
CC(C)(C)OC(=O)n1c(-c2ccccc2C[C@H](NC(=O)c2cnc3ccccn3c2=O)C(=O)O)cc2c(Cl)cccc21	4	Active	
NC(=O)CC[C@H](C(=O)Nc1cccc(Oc2ccccc2)c1)n1cc(CNC(=O)c2ccc3ncn(CC(=O)c4ccc(O)c(O)c4)c3c2)nn1	5	Active	
NC(=O)CC[C@@H](C(=O)Nc1cccc(Oc2ccccc2)c1)n1cc(CNC(=O)c2ccc3ncn(CC(=O)c4ccc(O)c(O)c4)c3c2)nn1	0.84	Active	
Cc1cc(-c2cnccn2)ccc1NC(=O)[C@H](CCC(N)=O)n1cc(CNC(=O)c2ccc3ncn(CC(=O)c4ccc(O)c(O)c4)c3c2)nn1	2.5	Active	
COc1c(Cl)cc(-c2cccc(C[C@@H](NC(=O)c3cc(-c4ccc(C)o4)[nH]n3)C(=O)NCCOCCOCCNC(=S)Nc3ccc(-c4c5ccc(=O)cc-5oc5cc(O)ccc45)c(C(=O)O)c3)c2)cc1Cl			Activity (SK-OV-3 [3]): Active; Activity (HeLa [4]): Active; Activity (HeLa [5]): Active; Activity (HeLa [6]): Active; Activity (HeLa [7]): Active; Activity (HeLa [8]): Active; Activity (OVCAR-3): Active; Activity (HeLa [9]): Active; Activity (HeLa [10]): Active; Activity (HeLa [11]): Active; Activity (SK-OV-3 [12]): Active
C[C@@H]1CCC[C@H](C)N1CCC(=O)N[C@@H](CCC(=O)N[C@@H](CCC(=O)O)C(=O)N[C@@H](CCCCN)C(N)=O)C(=O)NCCCSCc1ccc(F)cc1	16	Active	
Cc1cc(-c2cnccn2)ccc1NC(=O)[C@@H](CCC(N)=O)n1cc(CNC(=O)c2ccc3ncn(CC(=O)c4ccc(O)c(O)c4)c3c2)nn1	2.4	Active	
C[C@@H]1CCC[C@H](C)N1CCC(=O)N[C@@H](CCC(=O)NCC(=O)N[C@@H](CCCCN)C(N)=O)C(=O)NCCCSCc1ccc(F)cc1	> 20	Active	
COC(=O)[C@H](Cc1ccc(-c2ccc(Cl)cc2C(F)(F)F)cc1)NC(=O)CC1C(=O)Nc2cc(C)ccc21 (stereo partly drawn)	3.9	Active	

Now from value to compound, other results behind:

IC50 [1] [µM]	Activity [2]	SMILES	other results
0.24	Active	Cc1ccc2c(c1)NC(=O)C2CC(=O)N[C@@H](Cc1ccc(-c2ccc(Cl)cc2C(F)(F)F)cc1)C(=O)O (stereo partly drawn)	
	Active	COc1c(Cl)cc(-c2cccc(C[C@@H](NC(=O)c3cc(-c4ccc(C)o4)[nH]n3)C(=O)O)c2)cc1Cl	Activity [13]: Active; inhibition [14]: Active; IC50 [15]: 0.032 µM
19	Active	Cc1ccc(NC(=O)NCC#Cc2ccc(C[C@H](NC(=O)c3nn(C)c(C)c3Br)C(=O)O)cc2)cc1	
13	Active	CC(C)(C)OC(=O)n1c(-c2ccccc2C[C@@H](NC(=O)c2cnc3ccccn3c2=O)C(=O)O)cc2c(Cl)cccc21	
> 20	Active	Cc1ccc(NC(=O)NCC#Cc2ccc(C[C@@H](NC(=O)c3nn(C)c(C)c3Br)C(=O)O)cc2)cc1	
0.13	Active	COc1c(Cl)cc(-c2cccc(C[C@H](NC(=O)c3cc(-c4ccc(C)o4)[nH]n3)C(=O)O)c2)cc1Cl	
